Type in all cases: cell-based
One assay deals with liver cancer HePG2 cells. The experiment in a line: In vitro cytotoxicity test, MTT assay, liver cancer cells. To be noted: Homo sapiens, 72 h incubation, read-out: GI50 Live cancer cells (HePG2). As to the method:
(§1) In this example, GI50 values (the concentration of a drug that inhibits the growth of cancer cells by 50%) of the novel anti-cancer pharmaceutical compounds of the present invention on the inhibition of human ovarian cancer cells (A2780s), colon cancer cells (HT-29), liver cancer HePG2 cells and lung cancer cells (A549) were determined by MTT assay, and further compared with that of anti-cancer drug irinotecan to evaluate in vitro cytotoxicity of the pharmaceutical compounds of the present invention.
(§2) MTT assay: Cells in logarithmic growth phase were seeded in 96-well culture plate at 100 μL/well and a cell density of 10^5/mL. After the cells were incubated for 18 h, the medium was replaced, and thereto the test compound samples with different concentrations were then added at 150 μL/well. The blank group was the wells to which only a RPMI 1640 culture medium comprising 10% fetal bovine serum was added without the addition of cells (for zero setting). The negative control group was the wells to which the equal volume of RPMI 1640 culture medium comprising 10% fetal bovine serum was added and the positive control group was the wells to which the equal volume of 13 μg/ml positive drug was added. Each group had three wells. […] After the crystal was completely dissolved, the absorbance (D) value of each well was detected on microplate reader at a wavelength of 490 nm. […]

The subject of assay [1] is human ovarian cancer cells (A2780s). The experiment in a line: In vitro cytotoxicity test, MTT assay, ovarian cancer cells. To be noted: 72 h incubation, read-out: GI50 Ovarian cancer cell (A2780s). As to the method:
as §1
(§3) MTT assay: Cells in logarithmic growth phase were seeded in 96-well culture plate at 100 μL/well and a cell density of 10^5/mL. After the cells were incubated for 18 h, the medium was replaced, and thereto the test compound samples with different concentrations were then added at 150 μL/well. The blank group was the wells to which only a RPMI 1640 culture medium comprising 10% fetal bovine serum was added without the addition of cells (for zero setting). The negative control group was the wells to which the equal volume of RPMI 1640 culture medium comprising 10% fetal bovine serum was added and the positive control group was the wells to which the equal volume of 13 μg/ml positive drug was added. Each group had three wells. After the cells were incubated for 72 h, MTT (5 mg/mL) solution was added at 15 μL/well, and the cells were further incubated for 4 h. The supernatant was discarded, and DMSO was added at 150 μL/well. The mixture was shaken and blended for 10 min. After the crystal was completely dissolved, the absorbance (D) value of each well was detected on microplate reader at a wavelength of 490 nm. The cell growth inhibition rate was calculated according to the following equation: Cell growth inhibition rate=(1−average D value of test group/average D value of control group)×100%.

Assay [2] has as its system colon cancer cells (HT-29). The experiment in a line: In vitro cytotoxicity test, MTT assay, colon cancer cells. To be noted: Homo sapiens, 72 h incubation. As to the method: as §1, §2
A general note: Tetrazolium dyes change colour on reduction, which living cells bring about.

Another assay has as its system lung cancer cells (A549). The experiment in a line: In vitro cytotoxicity test, MTT assay, lung cancer cells. To be noted: Homo sapiens, 72 h incubation. As to the method:
as §1, §3

The values that follow come from patent publication US9206192B2, “Trolox derivative-modified fat-soluble anti-cancer pharmaceutical compounds, preparations, preparing methods and use thereof” (CHIA TAI TIANQING PHARMACEUTICAL GROUP CO., LTD, priority 2011, dated 2015).

Broadly, the GI50 is the concentration at which growth is held to half of that of the control.

In the case of `CCc1c2c(nc3ccc(OC(=O)N4CCC(N5CCCCC5)CC4)cc13)-c1cc3c(c(=O)n1C2)COC(=O)[C@]3(O)CC` [Irinotecan, irinotecan, reference compound], the GI50 was found to be 9440 nM with liver cancer HePG2 cells, 19300 nM in assay [1], 15200 nM in assay [2] and 58.1 nM in the assay on lung cancer cells (A549).

For the compound `CCCCCCCCCCCCCCCCOC(=O)[C@@]1(C)CCc2c(C)c(OC(=O)CCC(=O)Oc3ccc4nc5c(c(CC)c4c3)Cn3c-5cc4c(c3=O)COC(=O)[C@]4(O)CC)c(C)c(C)c2O1` [MXL-003, 7-ethyl-10-hydroxycamptothecin R-(+)-6-hydroxy-2,5,7,8-tetramethylchroman-2-carboxylic acid hexadecyl ester-6-succinate], the GI50 with liver cancer HePG2 cells came to 164 nM; in assay [1] it was 16.9 nM; in assay [2], 45 nM; in the assay with lung cancer cells (A549), 169 nM.

On to `CCCCCCOC(=O)[C@@]1(C)CCc2c(C)c(OC(=O)CCC(=O)Oc3ccc4nc5c(c(CC)c4c3)Cn3c-5cc4c(c3=O)COC(=O)[C@]4(O)CC)c(C)c(C)c2O1` [MXL-001, 7-ethyl-10-hydroxycamptothecin R-(+)-6-hydroxy-2,5,7,8-tetramethylchroman-2-carboxylic acid n-hexyl ester-6-succinate], for which the GI50 in assay [1] was 40.9 nM; in the assay on lung cancer cells (A549), 4600 nM.

Take `CCCCCCCCCCCCOC(=O)[C@@]1(C)CCc2c(C)c(OC(=O)CCC(=O)Oc3ccc4nc5c(c(CC)c4c3)Cn3c-5cc4c(c3=O)COC(=O)[C@]4(O)CC)c(C)c(C)c2O1` [MXL-002, 7-ethyl-10-hydroxycamptothecin R-(+)-6-hydroxy-2,5,7,8-tetramethylchroman-2-carboxylic acid dodecyl ester-6-succinate]: the GI50 in assay [1] amounted to 17.8 nM; in the assay with lung cancer cells (A549), 2100 nM.
